Key:
[1] = tested on: human myeloid leukemia cell line THP1; experiment: Cell proliferation test (Cell Titer-Glo), THP1; type: cell-based; conditions: THP1 cells, cytarabine alone
Protocol: (§1) The cell proliferation test was performed using human myeloid leukemia cell line U-937 (ATCC, CRL-1593.2), MOLM-13 (DSMZ, ACC 554), HL60 (ATCC, CRL-240), SKM-1 (JCRB cell bank, JCRB0118), OCI-M2 (DSMZ, ACC 619), NOMO-1 (JCRB cell bank, IFO050474), MV4-11 (ATCC, CRL-9591), THP1 (ATCC, TIB-202), and human peripheral blood mononuclear cell PBMC (CTL, CTL-UP-1). As the culture medium of U-937 cells, MOLM-13 cells, HL60 cells, SKM-1 cells, OCI-M2 cells, NOMO-1 cells, MV4-11 cells, and THP1 cells, RPMI1640 (FUJIFILM Wako Pure Chemical Corporation, 189-02025) added with 10% fetal bovine serum (Thermo Fisher Scientific, Inc., 10437-028) and 1% penicillin-streptomycin (10,000 U/mL, Thermo Fisher Scientific, Inc., 15140-122) was used. […] After culturing overnight, 5 μL of FLA3527, ASLAN003, BAY2402234, or cytarabine (Ara-C, C2035, Tokyo Chemical Industry Co., Ltd.) at the predetermined concentration was added, and 3 days later, 25 μL of Cell Titer-Glo (registered trade mark) luminescent cell viability assay (Promega Corporation, G7573) was added, and the light emission amount was measured using an Envision plate reader (PerkinElmer, Inc.). […] The proliferation inhibition concentration for each compound concentration was calculated by the following expression. […]
(§2) The CI indicating the combined effect of Ara-C and the DHODH inhibitor compound was calculated using the software CalcuSyn of Biosoft.

[2] = tested on: human myeloid leukemia cell line MV4-11; experiment: Cell proliferation test (Cell Titer-Glo), MV4-11; type: cell-based; conditions: MV4-11 cells, Ara-C alone
Protocol: as §1, §2

**Q.** For `Nc1ccn([C@@H]2O[C@H](CO)[C@@H](O)[C@@H]2O)c(=O)n1` [Ara-C, cytarabine], which “cytarabine sensitivity of the cell line” value [1] is on record?
**A.** insensitive

**Q.** And the “Ara-C sensitivity of the cell line” value [2]?
**A.** sensitive

— patent publication US11890296B2, “Anti-tumor agent containing cytarabine, anti- tumor effect enhancing agent which is used in combination with cytarabine, anti-tumor kit, and anti-tumor agent which is used in combination with cytarabine” (priority 2018, dated 2024)
